Laboratory results published in PubChem BioAssay (NCI).
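1) Cells in 96-well plates. 2) Compound, 48 h, 5 concentrations. 3) Linear interpolation between surrounding doses. 4) Unreached endpoint = highest concentration. At the TGI there is no net growth.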

Experiments:
Experiment in all cases: NCI-60 cell line screen, 48 h
NCI-H460 lung = system: NCI-H460 lung
HOP-18 NSCLC = system: HOP-18 NSCLC
SNB-78 CNS = system: SNB-78 CNS
K-562 leukemia = system: K-562 leukemia
LXFL 529 NSCLC = system: LXFL 529 NSCLC
IGROV1 ovarian = system: IGROV1 ovarian
OVCAR-8 ovarian = system: OVCAR-8 ovarian
SK-MEL-2 melanoma = system: SK-MEL-2 melanoma
CAKI-1 renal = system: CAKI-1 renal
XF 498 CNS = system: XF 498 CNS
SW-620 colon = system: SW-620 colon
M14 melanoma = system: M14 melanoma
NCI-H226 lung = system: NCI-H226 lung
EKVX NSCLC = system: EKVX NSCLC
OVCAR-3 ovarian = system: OVCAR-3 ovarian
A549 NSCLC = system: A549 NSCLC
SNB-19 CNS = system: SNB-19 CNS
A498 renal = system: A498 renal
KM12 colon = system: KM12 colon
SK-MEL-28 melanoma = system: SK-MEL-28 melanoma
SF-539 CNS = system: SF-539 CNS
HT29 colon = system: HT29 colon
M19-MEL melanoma = system: M19-MEL melanoma
HOP-62 NSCLC = system: HOP-62 NSCLC
HL-60(TB) leukemia = system: HL-60(TB) leukemia
DMS 114 small cell lung = system: DMS 114 small cell lung
HOP-92 NSCLC = system: HOP-92 NSCLC
SF-295 CNS = system: SF-295 CNS
MOLT-4 leukemia = system: MOLT-4 leukemia
UO-31 renal = system: UO-31 renal
COLO 205 colon = system: COLO 205 colon
SR leukemia = system: SR leukemia
HCT-116 colon = system: HCT-116 colon
SN12C renal = system: SN12C renal
SNB-75 CNS = system: SNB-75 CNS
OVCAR-4 ovarian = system: OVCAR-4 ovarian
MALME-3M melanoma = system: MALME-3M melanoma
UACC-62 melanoma = system: UACC-62 melanoma
RPMI-8226 leukemia = system: RPMI-8226 leukemia
U251 CNS = system: U251 CNS
HCT-15 colon = system: HCT-15 colon
TK-10 renal = system: TK-10 renal
CCRF-CEM leukemia = system: CCRF-CEM leukemia
KM20L2 colon = system: KM20L2 colon
HCC-2998 colon = system: HCC-2998 colon
ACHN renal = system: ACHN renal
786-0 renal = system: 786-0 renal
RXF 393 renal = system: RXF 393 renal
DLD-1 colon = system: DLD-1 colon
OVCAR-5 ovarian = system: OVCAR-5 ovarian
NCI-H23 lung = system: NCI-H23 lung
UACC-257 melanoma = system: UACC-257 melanoma
NCI-H522 lung = system: NCI-H522 lung
LOX IMVI melanoma = system: LOX IMVI melanoma
SF-268 CNS = system: SF-268 CNS
SK-OV-3 ovarian = system: SK-OV-3 ovarian
SK-MEL-5 melanoma = system: SK-MEL-5 melanoma
DMS 273 small cell lung = system: DMS 273 small cell lung

Q: How did the TGI (NCI-H460 lung) turn out when `CCC12C=CCN3CCC4(c5cc(C6(C(=O)OC)CCCCCc7c6[nH]c6ccccc76)c(OC)cc5N(C)C4C(O)(C(=O)OC)C1OC(C)=O)C32` (configuration not stated) was run?
A: 9.92 µM

Q: And the TGI (HOP-18 NSCLC)?
A: 4.86 µM

Q: What about the TGI (SNB-78 CNS) of the same compound?
A: 9.48 µM

Q: What about the TGI (K-562 leukemia) of the same compound?
A: > 100 µM

Q: And the TGI (LXFL 529 NSCLC)?
A: 5.54 µM

Q: And the TGI (IGROV1 ovarian)?
A: 5.23 µM

Q: And the TGI (OVCAR-8 ovarian)?
A: 17.2 µM

Q: And the TGI (SK-MEL-2 melanoma)?
A: 3.17 µM

Q: What about the TGI (CAKI-1 renal) of the same compound?
A: 7.46 µM

Q: And the TGI (XF 498 CNS)?
A: 6.44 µM

Q: What about the TGI (SW-620 colon) of the same compound?
A: 17.5 µM

Q: What about the TGI (M14 melanoma) of the same compound?
A: 6.75 µM

Q: What about the TGI (NCI-H226 lung) of the same compound?
A: 6.65 µM

Q: And the TGI (EKVX NSCLC)?
A: 14 µM

Q: And the TGI (OVCAR-3 ovarian)?
A: 15.5 µM

Q: What about the TGI (A549 NSCLC) of the same compound?
A: 11.7 µM

Q: And the TGI (SNB-19 CNS)?
A: 12.1 µM

Q: And the TGI (A498 renal)?
A: 7.39 µM

Q: What about the TGI (KM12 colon) of the same compound?
A: 5.93 µM

Q: And the TGI (SK-MEL-28 melanoma)?
A: 4.35 µM

Q: What about the TGI (SF-539 CNS) of the same compound?
A: 4.63 µM

Q: What about the TGI (HT29 colon) of the same compound?
A: 2.06 µM

Q: And the TGI (M19-MEL melanoma)?
A: 6.93 µM

Q: And the TGI (HOP-62 NSCLC)?
A: 13.2 µM

Q: And the TGI (HL-60(TB) leukemia)?
A: 5.81 µM

Q: And the TGI (DMS 114 small cell lung)?
A: 7.09 µM

Q: And the TGI (HOP-92 NSCLC)?
A: 4.76 µM

Q: What about the TGI (SF-295 CNS) of the same compound?
A: 5.3 µM

Q: And the TGI (MOLT-4 leukemia)?
A: 9.19 µM

Q: What about the TGI (UO-31 renal) of the same compound?
A: 7.25 µM

Q: What about the TGI (COLO 205 colon) of the same compound?
A: 8.85 µM

Q: What about the TGI (SR leukemia) of the same compound?
A: 7.65 µM

Q: What about the TGI (HCT-116 colon) of the same compound?
A: 13 µM

Q: What about the TGI (SN12C renal) of the same compound?
A: 12.8 µM

Q: What about the TGI (SNB-75 CNS) of the same compound?
A: 7.8 µM

Q: And the TGI (OVCAR-4 ovarian)?
A: 12.3 µM

Q: What about the TGI (MALME-3M melanoma) of the same compound?
A: 3.84 µM

Q: And the TGI (UACC-62 melanoma)?
A: 3.43 µM

Q: And the TGI (RPMI-8226 leukemia)?
A: 6.97 µM

Q: What about the TGI (U251 CNS) of the same compound?
A: 5.68 µM

Q: And the TGI (HCT-15 colon)?
A: 5.29 µM

Q: What about the TGI (TK-10 renal) of the same compound?
A: 5.5 µM

Q: And the TGI (CCRF-CEM leukemia)?
A: 5.49 µM

Q: What about the TGI (KM20L2 colon) of the same compound?
A: 4.76 µM

Q: What about the TGI (HCC-2998 colon) of the same compound?
A: 3.97 µM

Q: And the TGI (ACHN renal)?
A: 3.3 µM

Q: What about the TGI (786-0 renal) of the same compound?
A: 4.89 µM

Q: What about the TGI (RXF 393 renal) of the same compound?
A: 3.52 µM

Q: What does the source list for `COC(=O)C(=O)C(C(=O)C(=O)Nc1ccc(OC)cc1[N+](=O)[O-])c1nc2ccc([N+](=O)[O-])cc2[nH]c1=O` (configuration not stated)?
A: TGI (DLD-1 colon): > 100 µM; TGI (NCI-H460 lung): > 100 µM; TGI (HOP-18 NSCLC): > 100 µM; TGI (SNB-78 CNS): > 100 µM; TGI (K-562 leukemia): > 100 µM; TGI (LXFL 529 NSCLC): > 100 µM; TGI (IGROV1 ovarian): > 100 µM; TGI (OVCAR-8 ovarian): > 100 µM; TGI (CAKI-1 renal): > 100 µM; TGI (XF 498 CNS): > 100 µM; TGI (OVCAR-5 ovarian): > 100 µM; TGI (SW-620 colon): > 100 µM; TGI (M14 melanoma): > 100 µM; TGI (NCI-H23 lung): > 100 µM; TGI (NCI-H226 lung): > 100 µM; TGI (EKVX NSCLC): > 100 µM; TGI (OVCAR-3 ovarian): > 100 µM; TGI (A549 NSCLC): > 100 µM; TGI (SNB-19 CNS): > 100 µM; TGI (A498 renal): > 100 µM; TGI (KM12 colon): > 100 µM; TGI (HT29 colon): > 100 µM; TGI (M19-MEL melanoma): > 100 µM; TGI (HOP-62 NSCLC): > 100 µM; TGI (HL-60(TB) leukemia): > 100 µM; TGI (DMS 114 small cell lung): > 100 µM; TGI (HOP-92 NSCLC): > 100 µM; TGI (UACC-257 melanoma): > 100 µM; TGI (SF-295 CNS): > 100 µM; TGI (MOLT-4 leukemia): > 100 µM; TGI (UO-31 renal): > 100 µM; TGI (NCI-H522 lung): > 100 µM; TGI (COLO 205 colon): > 100 µM; TGI (SR leukemia): > 100 µM; TGI (HCT-116 colon): > 100 µM; TGI (SN12C renal): > 100 µM; TGI (SNB-75 CNS): > 100 µM; TGI (OVCAR-4 ovarian): > 100 µM; TGI (MALME-3M melanoma): > 100 µM; TGI (UACC-62 melanoma): > 100 µM; TGI (RPMI-8226 leukemia): > 100 µM; TGI (U251 CNS): > 100 µM; TGI (HCT-15 colon): > 100 µM; TGI (LOX IMVI melanoma): > 100 µM; TGI (TK-10 renal): > 100 µM; TGI (CCRF-CEM leukemia): > 100 µM; TGI (KM20L2 colon): > 100 µM; TGI (SF-268 CNS): > 100 µM; TGI (HCC-2998 colon): > 100 µM; TGI (ACHN renal): > 100 µM; TGI (786-0 renal): > 100 µM; TGI (SK-OV-3 ovarian): > 100 µM; TGI (RXF 393 renal): > 100 µM

Q: What does the source list for `Cc1ccccc1NC(=O)C(=O)c1c(O)c2ccc(O)cc2oc1=O`?
A: TGI (DLD-1 colon): > 100 µM; TGI (NCI-H460 lung): > 100 µM; TGI (SK-MEL-5 melanoma): > 100 µM; TGI (HOP-18 NSCLC): > 100 µM; TGI (K-562 leukemia): > 100 µM; TGI (LXFL 529 NSCLC): > 100 µM; TGI (IGROV1 ovarian): > 100 µM; TGI (OVCAR-8 ovarian): > 100 µM; TGI (SK-MEL-2 melanoma): > 100 µM; TGI (CAKI-1 renal): > 100 µM; TGI (DMS 273 small cell lung): > 100 µM; TGI (XF 498 CNS): > 100 µM; TGI (SW-620 colon): > 100 µM; TGI (M14 melanoma): > 100 µM; TGI (NCI-H23 lung): > 100 µM; TGI (NCI-H226 lung): > 100 µM; TGI (OVCAR-3 ovarian): > 100 µM; TGI (A549 NSCLC): > 100 µM; TGI (SNB-19 CNS): > 100 µM; TGI (A498 renal): > 100 µM; TGI (KM12 colon): > 100 µM; TGI (SK-MEL-28 melanoma): > 100 µM; TGI (HT29 colon): > 100 µM; TGI (M19-MEL melanoma): > 100 µM; TGI (HOP-62 NSCLC): > 100 µM; TGI (HL-60(TB) leukemia): > 100 µM; TGI (DMS 114 small cell lung): > 100 µM; TGI (HOP-92 NSCLC): > 100 µM; TGI (UACC-257 melanoma): > 100 µM; TGI (MOLT-4 leukemia): > 100 µM; TGI (UO-31 renal): > 100 µM; TGI (NCI-H522 lung): > 100 µM; TGI (COLO 205 colon): > 100 µM; TGI (HCT-116 colon): > 100 µM; TGI (SN12C renal): > 100 µM; TGI (SNB-75 CNS): > 100 µM; TGI (OVCAR-4 ovarian): > 100 µM; TGI (MALME-3M melanoma): > 100 µM; TGI (UACC-62 melanoma): > 100 µM; TGI (RPMI-8226 leukemia): > 100 µM; TGI (U251 CNS): > 100 µM; TGI (HCT-15 colon): > 100 µM; TGI (LOX IMVI melanoma): > 100 µM; TGI (TK-10 renal): > 100 µM; TGI (CCRF-CEM leukemia): > 100 µM; TGI (KM20L2 colon): > 100 µM; TGI (SF-268 CNS): > 100 µM; TGI (ACHN renal): > 100 µM; TGI (786-0 renal): > 100 µM; TGI (SK-OV-3 ovarian): > 100 µM; TGI (RXF 393 renal): > 100 µM
